From patent publication US20220233640A1, “GALANIN- AND GALANIN RECEPTOR BASED COMPOUNDS FOR THE TREATMENT OF LIVER FIBROSIS” (United State Govermment as represented by the Department of …, priority 2019, published 2022)
Ends that are not written are not given here.

Tested on: FVBN and Mdr2KO mice
Assay: Non-hepatic effects: serum biomarkers of heart (CK) and kidney (CREA, BUN), IDEXX assay system
Type: in vivo, mouse
Set-up: CREA / BUN: unit not given here
Conditions: for effects on heart (CK) and kidneys (CREA, BUN): FVBN and Mdr2KO mice, vs vehicle-treated mice; for CK / BUN / CREA: serum
Protocol: FVB/N (FVBN) and Mdr2^−/− (Mdr2KO) mice were purchased from Jackson Laboratory (Bar Harbor, Me.) and maintained in a temperature-controlled environment at 20-22° C. with a 12:12 hours light-dark cycle, having free access to food and drinking water. All animal procedures were performed in accord with the guidelines of Baylor Scott and White (Temple, Tex.) Institutional Animal Care and Use Committee, with approved protocols. In time-course experiments, 1 week, 1 months, 2 months and 4 months old male and female FVBN and Mdr2KO mice were used. In experiments designed to measure the effect of various agonists and antagonists of Gal receptors, on the extent of liver fibrosis in Mdr2KO mice, 2 months old, male and female Mdr2KO mice were used, as well as FVBN mice as negative controls. Four to five animals in each group of age/gender/type (FVBN or Mdr2KO) were used. In parallel, an equal number of 2 months old, male and female FVBN and MDR2KO mice were treated with vehicle only (saline or 20% DMSO) via the same type of minipumps. Galanin, M871 and M40 peptides were dissolved in saline or 20% DMSO in saline, depending on their solubility, and administered by using Alzet osmotic minipumps (Cupertino, Calif.). Galanin, M871 and M40, were administered at a rate of 4 nmol/Kg/day (mice weights being 25-30 g). Vivo-morpholino oligos including two sequences specific to mouse GalR1, and one mouse GalR1 mismatch control, were administered at a rate of 25 μg/mouse/day, for 14 days, after which the mice were euthanized with euthasol, followed by exsanguination and collection of liver tissue.
Serum alanine aminotransferase (ALT), aspartate aminotransferase (AST), alkaline phosphatase (ALKP), CREA, BUN and CK were measured using the IDEXX Catalyst One instrument from IDEXX Laboratories, Inc (Houston, Tex.).
To investigate possible adverse effects of GalR antagonists on vital organs other than the liver, blood biomarkers of the heart (creatine kinase, CK) and kidneys (creatinine, CREA; blood urea nitrogen, BUN) were investigated in FVBN and Mdr2KO mice when treated with GalR1 vivo morpholino, M871, and M40 as compared to vehicle-treated mice.
Referring to Table 2, non-hepatic effects of GalR1 vivo morpholino, M871, and M40 Gal receptor antagonists on FVBN mice are shown. Several serum biomarkers including creatine kinase (CK) for heart, creatinine (CREA) and blood urea nitrogen (BUN) for kidney, were assessed by using IDEXX assay system. Normal range: CK, 68-1070 U/L; CREA, […]; BUN, […].

| Substance | effects on heart (CK) and kidneys (CREA, BUN) | CK (Female FVBN mice) [U/L] | CK (Female Mdr2KO mice) [U/L] | CK (Male FVBN mice) [U/L] | CK (Male Mdr2KO mice) [U/L] | BUN (Female FVBN mice) | CREA (Female FVBN mice) | BUN (Female Mdr2KO mice) | CREA (Female Mdr2KO mice) | BUN (Male FVBN mice) | CREA (Male FVBN mice) | BUN (Male Mdr2KO mice) | CREA (Male Mdr2KO mice) |
| --- | --- | --- | --- | --- | --- | --- | --- | --- | --- | --- | --- | --- | --- |
| GWTLNSAGYLLGPPPALALA-NH2 [M40] | no effects on the heart or kidneys | 151.30 ± 19.90 | 163.33 ± 63.33 | 190.00 ± 58.59 | 103.33 ± 3.33 |  |  |  |  |  |  |  |  |
| WTLNSAGYLLGPEHPPPALALA-NH2 [M871] | no effects on the heart or kidneys | 136.67 ± 36.67 | 213.33 ± 103.49 | 99.67 ± 0.88 | 230.00 ± 52.92 | 26.55 ± 1.67 | 0.79 ± 0.041 | 23.33 ± 0.49 | 0.68 ± 0.012 | 26.97 ± 0.83 | 0.81 ± 0.063 | 23.04 ± 0.92 | 0.67 ± 0.042 |
